Measured values as given in US12337010B2, “Compositions and methods of treatment using nicotinamide mononucleotide” (Washington University, priority 2017, dated 2025).

Columns and labels:
Slc12a8 [1] = target: T1, Slc12a8 (Mus musculus, UniProt Q8VI23); experiment: 3H-NMN uptake and displacement in Slc12a8-OE proteoliposomes; assay type: biochemical; details: for displacement of 3H-NMN: 150 μM cold compound, 150 nM 3H-NMN, 2 min
T1 construct: NIH3T3 cells were transfected with 5 μg of pCXN2 carrying the full-length Slc12a8 cDNA (Slc12a8-OE); expressed in transfected cells
T1 sequence (Q8VI23 1-705): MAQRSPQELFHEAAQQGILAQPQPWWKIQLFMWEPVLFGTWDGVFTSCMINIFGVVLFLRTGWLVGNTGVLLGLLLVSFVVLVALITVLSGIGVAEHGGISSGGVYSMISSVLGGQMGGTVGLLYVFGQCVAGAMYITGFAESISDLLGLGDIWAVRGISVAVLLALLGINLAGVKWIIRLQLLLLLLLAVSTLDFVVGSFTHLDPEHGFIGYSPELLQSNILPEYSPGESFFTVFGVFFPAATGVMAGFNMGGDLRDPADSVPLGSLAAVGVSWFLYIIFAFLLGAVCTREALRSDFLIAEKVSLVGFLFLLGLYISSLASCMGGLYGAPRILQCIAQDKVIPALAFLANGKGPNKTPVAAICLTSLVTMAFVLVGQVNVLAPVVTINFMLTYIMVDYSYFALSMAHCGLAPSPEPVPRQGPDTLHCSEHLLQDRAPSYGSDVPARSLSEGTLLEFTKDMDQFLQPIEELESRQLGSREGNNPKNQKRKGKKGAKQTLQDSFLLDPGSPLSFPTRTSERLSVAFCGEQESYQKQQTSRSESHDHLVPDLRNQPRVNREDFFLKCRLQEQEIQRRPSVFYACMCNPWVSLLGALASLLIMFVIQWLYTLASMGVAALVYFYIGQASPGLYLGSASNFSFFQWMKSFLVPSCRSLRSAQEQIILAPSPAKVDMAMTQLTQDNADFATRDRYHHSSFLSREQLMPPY
Experimental: Proteoliposome experiments. Proteoliposome preparation was carried out as previously described (Bruzzone, S., et al., FASEB J., 15, 10-12, 2001). Briefly, 2×10^7 control or Slc12a8-OE NIH3T3 cells were resuspended in 1 ml of lysis buffer (10 mM Tris-HCl, pH 8.3, 150 mM NaCl, 0.3 M sucrose, protease inhibitor cocktail) and disrupted using a homogenizer. The lysate was centrifuged for 10 min at 3,000×g, and the supernatant was collected and centrifuged for 15 min at 100,000×g. The membrane proteins were solubilized with buffer A (10 mM Tris-HCl, pH 8.3, containing 150 mM NaCl and 0.5% n-octyl β-glucopyranoside). Separately, total lipids were extracted from hemoglobin-free erythrocyte membranes (ghosts) as described previously (Franco, L., et al., FASEB J., 12, 1507-1520, 1998). Total lipids from human erythrocyte membranes (3 mg) were dried and resuspended with 600 μl of solubilized membrane proteins (at approximately 0.7 mg/ml protein concentration). The resulting emulsions were sonicated in ice for 1 min and dialyzed against 5 liters of buffer A without n-octyl-β-glucopyranoside (dialysis buffer) for 24 h at 4° C. Proteoliposomes were recovered, centrifuged for 15 min at 100,000×g, resuspended in 900 μl dialysis buffer and passed 5 times through a 30-gauge needle.
To examine the Na+-dependency of Slc12a8, NaCl was replaced with 150 mM LiCl. All steps were carried out at 4° C. Proteoliposomes (30 μl in triplicate for each condition) were incubated for 2, 5 or 10 min at 25° C. in the presence of […] 3H-β-NMN (specific activity, 9.1 Ci/mmole) with or without label-free nucleotides (NMN, NR, NAD, AMP; NAM or NaMN). At the end of incubations, samples were filtered on a glass fiber paper. Filters were washed with 3 ml of dialysis buffer, dried, and counted for radioactivity.
Proteoliposomes were produced by combining the membrane fractions of Slc12a8-OE or control NIH3T3 cells with the phospholipid bilayers derived from deproteinized erythrocyte plasma membrane as described supra using 22 nM, ^3H-NMN at 25° C. in proteoliposomes produced from plasma membrane fractions of Slc12a8-OE and control NIH3T3 cells in transport buffer (n=3; analyzed by one-way ANOVA with Sidak's multiple comparisons test).
In order to determine substrate specificity of Slc12a8, these Slc12a8-OE proteoliposomes were used for displacement experiments with ^3H-NMN and various cold NAD+-related compounds. Uptake of ^3H-NMN (150 nM, 25° C.) was measured at 2 min in Slc12a8-OE proteoliposomes in the presence of 150 μM competing cold compounds (NMN, NR, NAD, AMP, NaMN, and nicotinamide) in transport buffer (n=3, analyzed by ANOVA with Dunnett's test). […] Data are shown as percentages of ^3H-NMN uptake (n=3; IC50 was calculated by non-linear regression analysis).
In these experiments, the sodium ion dependency of Slc12a8 for NMN transport was evaluated using the proteoliposome system.

Slc12a8 gene = experiment: Microarray gene expression profiling of FK866-treated primary cultures; assay type: cell-based, mouse
Experimental: Microarray Analysis. Total RNA was isolated from primary hepatocytes, pancreatic islets, and hippocampal neurospheres, treated with 0.1% DMSO (control) or FK866 (200 nM for primary hepatocytes, and 10 nM for pancreatic islets and hippocampal neurospheres). To determine transcriptional changes induced by FK866 treatment, microarray analyses were conducted using the Illumina Mouse Ref 8 whole genome microarrays (version 2). […] All data were analyzed by the R statistical software package.
Slc12a8 was identified in the section of the Venn diagram in FIG. 1 indicated by an arrow. The Slc12a8 gene belongs to the SLC12 gene family of the electroneutral cation-chloride-coupled co-transporters, and the function of the protein encoded by this gene remains unknown (Hebert, S. C., et al., Pflugers Arch. 447, 580-593, 2004).

Slc12a8 mRNA expression = Slc12a8 mRNA expression by quantitative RT-PCR in cells and ex vivo small intestine explants; assay type: cell-based, mouse; details: FK866 alone; primary hepatocytes, NIH3T3 fibroblasts (24 h), jejunum and ileum explants (4 h)
Experimental: Cell culture and ex vivo small intestine explant culture. […] For Slc12a8 mRNA expression analysis, 2.5×10^5 cells per well were incubated in 6-well plates with DMEM with 1% FBS containing 0.1% DMSO or 100 nM FK866 or 100 nM FK866 plus 100 μM NMN for 24 h. Small intestines from 3-month old B6 male mice were cut into three segments with duodenum/jejunum/ileum length ratios of 1:3:2 (Wang, H. H., et al., Hepatology 45, 998-1006, 2007). […] Cellular and tissue RNA samples were analyzed by quantitative RT-PCR, as described previously (Stein, L. R. & Imai, S., EMBO J., 33, 1321-1340, 2014).
The amounts of adenosine produced were determined by HPLC. […] Silencing efficiencies were evaluated by quantitative RT-PCR.
FIG. 2 illustrates that Slc12a8 is highly expressed in the small intestine and pancreas and moderately in the liver and white adipose tissue of B6 male mice at 3 months of age (n=3 mice). […] Cells were treated with these compounds for 24 h (n=4 mice for hepatocytes treated with DMSO and FK866, and n=3 mice for hepatocytes treated with FK866 and NMN; n=6 for NIH3T3 cells; analyzed using ANOVA with Tukey's test). FIG. 5 illustrates surface and intracellular Slc12a8 protein expression levels were measured by flow cytometry analysis in NIH3T3 cells treated with FK866 or FK866 plus NMN for 48h. […]

Slc12a8 [2] = target: T1, Slc12a8; experiment: Radiolabeled NMN uptake in Slc12a8-OE and control NIH3T3 cells; assay type: cell-based; details: 25 μM, 37° C., 3 and 5 min time points, Slc12a8-OE cells compared to control cells
Experimental: NMN uptake analyses with radiolabeled NMN. Control and Slc12a8-OE NIH3T3 cells were harvested by centrifugation (400×g, 5 min), washed once in HBSS, and incubated at 37° C. in HBSS [pH 7.5] (5×10^6 cells/ml) containing 100 nM 3H-β-Nicotinamide mononucleotide (9 Ci/mmol; Moravek Biochemicals, CA) and unlabeled NMN to make the final concentration 25 μM. At the designated time points (1, 3, 5 and 10 minutes), aliquots of the cells (100 μl) were collected and placed in 1.5-ml microcentrifuge tubes containing silicone-mineral oil (density, 1.015; Sigma-Aldrich) on the top of 2 M potassium hydroxide solution, followed by centrifugation at 16,000×g for 30s. Cells were separated from the buffer and pelleted through the silicone-mineral oil layer. The radioactivity in these cell pellets was determined by a liquid scintillation counter. For calculating Km and Vmax, the same conditions were used as described above, but with various total concentrations of NMN, ranging from 1 μM to 100 μM. At the 4-min time point, 100 μl of cell suspension was collected and pelleted in the same way described above. The radioactivity in cell pellets was determined by a liquid scintillation counter. The radioactivity measured in control NIH3T3 cells was subtracted to calculate Slc12a8-specific NMN uptake in Slc12a8-OE NIH3T3 cells.
Uptake of NMN was measured as described in methods under “NMN uptake analyses with radiolabeled NMN” using 25 μM ^3H-NMN at 37° C. in control and Slc12a8-OE NIH3T3 cells over 10 min in Hanks' buffer [ph7.5] with Mg2+ and Ca2+ (n=12; analyzed by ANOVA with Sidak's test). […] This Km is qualitatively consistent with a detected range of NMN concentrations in mouse plasma and erythrocytes (Revollo, J. R. et al., Cell Metab., 6, 363-375, 2007; Ramsey, K. M., et al., Science, 324, 651-654, 2009; Yamada, K., et al., Anal. Biochem., 352, 282-285, 2006).

O=C(O)c1cccnc1 [NA, nicotinic acid]
effect on uptake of 3H-NMN (Slc12a8 [1]; Slc12a8-overexpressing proteoliposomes): able to enhance the uptake

NC(=O)c1ccc[n+]([C@@H]2O[C@H](COP(=O)([O-])OP(=O)(O)OC[C@H]3O[C@@H](n4cnc5c(N)ncnc54)[C@H](O)[C@@H]3O)[C@@H](O)[C@H]2O)c1 [NAD+]
displacement of 3H-NMN (Slc12a8 [1]; 25° C.): very low or negligible displacement

O=C(/C=C/c1cccnc1)NCCCCC1CCN(C(=O)c2ccccc2)CC1 [FK866]
Slc12a8 Z ratio (Slc12a8 gene; hippocampal neurospheres, 10 nM FK866 vs 0.1% DMSO): 4.91 | Slc12a8 Z ratio (Slc12a8 gene; pancreatic islets, 10 nM FK866 vs 0.1% DMSO): 1.69 | Slc12a8 Z ratio (Slc12a8 gene; primary hepatocytes, 200 nM FK866 vs 0.1% DMSO): 2.06 | Slc12a8 expression (Slc12a8 mRNA expression): induced significantly

O=C(O)c1ccc[n+]([C@@H]2O[C@H](COP(=O)(O)O)[C@@H](O)[C@H]2O)c1 [NaMN, nicotinic acid mononucleotide]
displacement of 3H-NMN (Slc12a8 [1]; 25° C.): very low or negligible displacement

Nc1ncnc2c1ncn2[C@@H]1O[C@H](COP(=O)(O)O)[C@@H](O)[C@H]1O [AMP, adenosine monophosphate]
displacement of 3H-NMN (Slc12a8 [1]; 25° C.): very low or negligible displacement

NC(=O)c1cccnc1 [nicotinamide]
displacement of 3H-NMN (Slc12a8 [1]; 25° C.): very low or negligible displacement

3H-β-Nicotinamide mononucleotide [^3H-NMN]
uptake of 3H-NMN (Slc12a8 [2]): significantly enhanced | 3H-NMN incorporation (Slc12a8 [1]; 22 nM, 25° C., within 2 min, Slc12a8-OE-derived vs control-derived proteoliposomes): significantly higher levels

NC(=O)c1ccc[n+]([C@@H]2O[C@H](CO)[C@@H](O)[C@H]2O)c1 [NR, nicotinamide riboside]
displacement of 3H-NMN (Slc12a8 [1]; 25° C.): ~70% | IC50 (Slc12a8 [1]; Slc12a8-OE proteoliposome system): 77.4 ± 10.8 µM
